{"source": "patent US8153818B2", "about": "“Triazolyl phenyl benzenesulfonamides” (ChemoCentryx, Inc., priority 2006, dated 2012)", "target": "T1, CCR9 (Homo sapiens, UniProt P51686)", "T1 construct": "chemokine expressing cells (such as THP-1 cells for CCR2 assay or MOLT-4 cells for CCR9 assay); host or cells: MOLT-4", "T1 sequence (P51686 1-369)": "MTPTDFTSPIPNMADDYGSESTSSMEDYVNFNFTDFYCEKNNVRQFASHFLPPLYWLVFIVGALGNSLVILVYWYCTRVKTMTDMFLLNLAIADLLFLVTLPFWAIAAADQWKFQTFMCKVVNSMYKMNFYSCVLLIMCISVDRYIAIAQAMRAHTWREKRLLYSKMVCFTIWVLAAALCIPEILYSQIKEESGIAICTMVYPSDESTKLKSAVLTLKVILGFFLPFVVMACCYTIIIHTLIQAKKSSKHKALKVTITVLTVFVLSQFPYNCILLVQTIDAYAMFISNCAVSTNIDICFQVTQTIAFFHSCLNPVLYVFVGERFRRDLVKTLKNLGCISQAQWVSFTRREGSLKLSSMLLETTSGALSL", "test": "CCR9 activity in one of the chemotaxis, binding or calcium mobilization assays", "assay_type": "cell-based", "settings": "assay not specified per compound", "how_it_was_run": "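Chemotaxis: THP-1 cells (CCR2, 0.1 nM MCP-1, 90 min) or MOLT-4 cells (CCR9, 50 nM TECK, 150 min) preincubated with compound 15 min RT, migration at 37 °C through 5-μm membrane, CyQUANT read; IC50 by nonlinear regression. Calcium flux: Fluo-4-loaded cells, 0.1 nM MCP-1 or 25 nM TECK. Binding: THP-1, ~50 pM [125I]MCP-1, 3 h, 4 °C.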"}
{"smiles": "CC(C)n1c(-c2cc(Cl)ccc2NS(=O)(=O)c2ccc(C(C)(C)C)cc2)nnc1C1CCOCC1", "note": "[Compound 46]", "values": [{"measurement": "IC50", "result": "< 1000", "unit": "nM"}]}
{"smiles": "CC(C)(C)c1ccc(S(=O)(=O)Nc2cc(F)c(F)cc2-c2nncn2C2CCOC2)cc1", "note": "(stereo not drawn) [Compound 42]", "values": [{"measurement": "IC50", "result": "< 1000", "unit": "nM"}]}
{"smiles": "Cn1c(CN2CCC2)nnc1-c1cc(Cl)c(F)cc1NS(=O)(=O)c1ccc(C(C)(C)C)cc1", "note": "[Compound 122]", "values": [{"measurement": "IC50", "result": "< 1000", "unit": "nM"}]}
{"smiles": "CC(C)n1c(CN2CCOCC2)nnc1-c1cc(Cl)c(F)cc1NS(=O)(=O)c1ccc(C(C)(C)C)cc1", "note": "[Compound 154]", "values": [{"measurement": "IC50", "result": "< 1000", "unit": "nM"}]}
{"smiles": "Cn1c(CN2CCOCC2)nnc1-c1cc(Cl)c(F)cc1NS(=O)(=O)c1ccc(C(C)(C)C)cc1", "note": "[Compound 66]", "values": [{"measurement": "IC50", "result": "< 1000", "unit": "nM"}]}
{"smiles": "CC(C)NCc1nnc(-c2cc(Cl)ccc2NS(=O)(=O)c2ccc(C(C)(C)C)cc2)n1C", "note": "[Compound 138, 4-tert-butyl-N-(4-chloro-2-(5-((isopropylamino)methyl)-4-methyl-4H-1,2,4-triazol-3-yl)phenyl)benzenesulfonamide]", "values": [{"measurement": "IC50", "result": "< 1000", "unit": "nM"}]}
{"smiles": "CC(C)(C)c1ccc(S(=O)(=O)Nc2ccc(Cl)cc2-c2nnc3ncccn23)cc1", "note": "[Compound 156, N-(2-([1,2,4]triazolo[4,3-a]pyrimidin-3-yl)-4-chlorophenyl)-4-tert-butylbenzenesulfonamide]", "values": [{"measurement": "IC50", "result": "< 1000", "unit": "nM"}]}
{"smiles": "CC(C)(C)c1ccc(S(=O)(=O)Nc2ccc(Cl)cc2-c2nncn2[C@H]2CCCOC2)cc1", "note": "[Compound 104]", "values": [{"measurement": "IC50", "result": "< 1000", "unit": "nM"}]}
{"smiles": "Cc1nnc(-c2cc(Cl)ccc2NS(=O)(=O)c2ccc(C(C)(C)C)cc2)n1CCN(C)C", "note": "[Compound 125, 4-tert-butyl-N-(4-chloro-2-(4-(2-(dimethylamino)ethyl)-5-methyl-4H-1,2,4-triazol-3-yl)phenyl)benzenesulfonamide]", "values": [{"measurement": "IC50", "result": "< 1000", "unit": "nM"}]}
{"smiles": "COCc1nnc(-c2cc(Cl)ccc2NS(=O)(=O)c2ccc(C(C)(C)C)cc2)n1C", "note": "[Compound 10, 4-tert-butyl-N-(4-chloro-2-(5-(methoxymethyl)-4-methyl-4H-1,2,4-triazol-3-yl)phenyl)benzenesulfonamide]", "values": [{"measurement": "IC50", "result": "< 1000", "unit": "nM"}]}
{"smiles": "Cc1nnc(-c2cc(Cl)ccc2NS(=O)(=O)c2ccc(C(C)(C)C)cc2)n1C1CCN(C(N)=O)CC1", "note": "[Compound 94]", "values": [{"measurement": "IC50", "result": "< 1000", "unit": "nM"}]}
{"smiles": "Cc1nnc(-c2cc(Cl)ccc2NS(=O)(=O)c2ccc(C(C)(C)C)cc2)n1C1CCN(C)CC1", "note": "[Compound 155]", "values": [{"measurement": "IC50", "result": "< 1000", "unit": "nM"}]}
{"smiles": "Cn1c(CN2CCCC2)nnc1-c1cc(Cl)c(F)cc1NS(=O)(=O)c1ccc(C(C)(C)C)cc1", "note": "[Compound 121]", "values": [{"measurement": "IC50", "result": "< 1000", "unit": "nM"}]}
{"smiles": "CC1(c2ccc(S(=O)(=O)Nc3ccc(Cl)cc3-c3nncn3[C@H]3CCNC3)cc2)CCOCC1", "note": "[Compound 142, (S)—N-(4-chloro-2-(4-(pyrrolidin-3-yl)-4H-1,2,4-triazol-3-yl)phenyl)-4-(4-methyltetrahydro-2H-pyran-4-yl)benzenesulfonamide]", "values": [{"measurement": "IC50", "result": "< 1000", "unit": "nM"}]}
{"smiles": "CC(C)c1nnc(-c2cc(Cl)ccc2NS(=O)(=O)c2ccc(C(C)(C)C)cc2)n1[C@H]1CCNC1", "note": "[Compound 118, (S)-4-tert-butyl-N-(4-chloro-2-(5-isopropyl-4-(pyrrolidin-3-yl)-4H-1,2,4-triazol-3-yl)phenyl)benzenesulfonamide]", "values": [{"measurement": "IC50", "result": "< 1000", "unit": "nM"}]}
{"smiles": "CC(C)(C)c1ccc(S(=O)(=O)Nc2cc(F)c(Cl)cc2-c2nncn2[C@H]2CCNC2=O)cc1", "note": "[Compound 90]", "values": [{"measurement": "IC50", "result": "< 1000", "unit": "nM"}]}
{"smiles": "CC(C)(C)c1ccc(S(=O)(=O)Nc2cc(F)c(Cl)cc2-c2nncn2[C@H]2CCCNC2)cc1", "note": "[Compound 112]", "values": [{"measurement": "IC50", "result": "< 1000", "unit": "nM"}]}
{"smiles": "CO[C@@H](C)c1nnc(-c2cc(Cl)c(F)cc2NS(=O)(=O)c2ccc(C(C)(C)C)cc2)n1C", "note": "[Compound 139]", "values": [{"measurement": "IC50", "result": "< 1000", "unit": "nM"}]}
{"smiles": "CNCc1nnc(-c2cc(Cl)c(F)cc2NS(=O)(=O)c2ccc(C(C)(C)C)cc2)n1C", "note": "[Compound 45, 4-tert-butyl-N-(4-chloro-5-fluoro-2-(4-methyl-5-((methylamino)methyl)-4H-1,2,4-triazol-3-yl)phenyl)benzenesulfonamide]", "values": [{"measurement": "IC50", "result": "< 1000", "unit": "nM"}]}
{"smiles": "CC(C)OCc1nnc(-c2cc(Cl)ccc2NS(=O)(=O)c2ccc(C(C)(C)C)cc2)n1C", "note": "[Compound 103, 4-tert-butyl-N-(4-chloro-2-(5-(isopropoxymethyl)-4-methyl-4H-1,2,4-triazol-3-yl)phenyl)benzenesulfonamide]", "values": [{"measurement": "IC50", "result": "< 1000", "unit": "nM"}]}
{"smiles": "CC(=O)N1CCC(n2c(C)nnc2-c2cc(Cl)ccc2NS(=O)(=O)c2ccc(C(C)(C)C)cc2)CC1", "note": "[Compound 91]", "values": [{"measurement": "IC50", "result": "< 1000", "unit": "nM"}]}
{"smiles": "Cn1c(-c2cc(Cl)ccc2NS(=O)(=O)c2ccc(C(C)(C)C)cc2)nnc1[C@H]1CCCO1", "note": "[Compound 34]", "values": [{"measurement": "IC50", "result": "< 1000", "unit": "nM"}]}
{"smiles": "Cn1c(CNC2CC2)nnc1-c1cc(Cl)c(F)cc1NS(=O)(=O)c1ccc(C(C)(C)C)cc1", "note": "[Compound 50, 4-tert-butyl-N-(4-chloro-2-(5-((cyclopropylamino)methyl)-4-methyl-4H-1,2,4-triazol-3-yl)-5-fluorophenyl)benzenesulfonamide]", "values": [{"measurement": "IC50", "result": "< 1000", "unit": "nM"}]}
{"smiles": "CCOC(=O)Cc1nnc(-c2cc(Cl)c(F)cc2NS(=O)(=O)c2ccc(C(C)(C)C)cc2)n1C", "note": "[Compound 64, ethyl 2-(5-(2-(4-tert-butylphenylsulfonamido)-5-chloro-4-fluorophenyl)-4-methyl-4H-1,2,4-triazol-3-yl)acetate]", "values": [{"measurement": "IC50", "result": "< 1000", "unit": "nM"}]}
{"smiles": "CCn1c(C)nnc1-c1cc(Cl)ccc1NS(=O)(=O)c1ccc(C(C)(C)C)cc1", "note": "[Compound 5, 4-tert-butyl-N-(4-chloro-2-(4-ethyl-5-methyl-4H-1,2,4-triazol-3-yl)phenyl)benzenesulfonamide]", "values": [{"measurement": "IC50", "result": "< 1000", "unit": "nM"}]}
{"smiles": "CCNCc1nnc(-c2cc(Cl)c(F)cc2NS(=O)(=O)c2ccc(C(C)(C)C)cc2)n1C", "note": "[Compound 48, 4-tert-butyl-N-(4-chloro-2-(5-((ethylamino)methyl)-4-methyl-4H-1,2,4-triazol-3-yl)-5-fluorophenyl)benzenesulfonamide]", "values": [{"measurement": "IC50", "result": "< 1000", "unit": "nM"}]}
{"smiles": "CN(C)Cc1nnc(-c2cc(Cl)c(F)cc2NS(=O)(=O)c2ccc(C(C)(C)C)cc2)n1C", "note": "[Compound 39, 4-tert-butyl-N-(4-chloro-2-(5-((dimethylamino)methyl)-4-methyl-4H-1,2,4-triazol-3-yl)-5-fluorophenyl)benzenesulfonamide]", "values": [{"measurement": "IC50", "result": "< 1000", "unit": "nM"}]}
{"smiles": "Cn1c(CO)nnc1-c1cc(Cl)c(F)cc1NS(=O)(=O)c1ccc(C(C)(C)C)cc1", "note": "[Compound 123, 4-tert-butyl-N-(4-chloro-5-fluoro-2-(5-(hydroxymethyl)-4-methyl-4H-1,2,4-triazol-3-yl)phenyl)benzenesulfonamide]", "values": [{"measurement": "IC50", "result": "< 1000", "unit": "nM"}]}
{"smiles": "Cc1nnc(-c2cc(Cl)ccc2NS(=O)(=O)c2ccc(C(C)(C)C)cc2)n1C1CCC1", "note": "[Compound 84, 4-tert-butyl-N-(4-chloro-2-(4-cyclobutyl-5-methyl-4H-1,2,4-triazol-3-yl)phenyl)benzenesulfonamide]", "values": [{"measurement": "IC50", "result": "< 1000", "unit": "nM"}]}
{"smiles": "Cc1nnc(-c2cc(Cl)c(F)cc2NS(=O)(=O)c2ccc(C(C)(C)C)cc2)n1[C@H]1CCNC1", "note": "[Compound 106]", "values": [{"measurement": "IC50", "result": "< 1000", "unit": "nM"}]}
{"smiles": "Cc1nnc(-c2cc(Cl)ccc2NS(=O)(=O)c2ccc(C(C)(C)C)cc2)n1C1CCNCC1", "note": "[Compound 20]", "values": [{"measurement": "IC50", "result": "< 1000", "unit": "nM"}]}
{"smiles": "CC(=O)N1CCC(n2c(C)nnc2-c2cc(Cl)ccc2NS(=O)(=O)c2ccc(C(C)(C)C)cc2)C1", "note": "(stereo not drawn) [Compound 124]", "values": [{"measurement": "IC50", "result": "< 1000", "unit": "nM"}]}
{"smiles": "CC(C)(C)c1ccc(S(=O)(=O)Nc2ccc(Cl)cc2-c2nncn2[C@H]2CCN(S(C)(=O)=O)C2)cc1", "note": "[Compound 153]", "values": [{"measurement": "IC50", "result": "< 1000", "unit": "nM"}]}
{"smiles": "Cc1nnc(-c2cc(Cl)c(F)cc2NS(=O)(=O)c2ccc(C(C)(C)C)cc2)n1C1CCOC1", "note": "(stereo not drawn) [Compound 80]", "values": [{"measurement": "IC50", "result": "< 1000", "unit": "nM"}]}
{"smiles": "CC(C)n1c(CN(C)C)nnc1-c1cc(Cl)ccc1NS(=O)(=O)c1ccc(C(C)(C)C)cc1", "note": "[Compound 98, 4-tert-butyl-N-(4-chloro-2-(5-((dimethylamino)methyl)-4-isopropyl-4H-1,2,4-triazol-3-yl)phenyl)benzenesulfonamide]", "values": [{"measurement": "IC50", "result": "< 1000", "unit": "nM"}]}
{"smiles": "Cn1c(-c2cc(Cl)ccc2NS(=O)(=O)c2ccc(C(C)(C)C)cc2)nnc1C1CCOCC1", "note": "[Compound 9]", "values": [{"measurement": "IC50", "result": "< 1000", "unit": "nM"}]}
{"smiles": "CC(C)(C)c1ccc(S(=O)(=O)Nc2ccc(Cl)cc2-c2nncn2C2CNC2)cc1", "note": "[Compound 131]", "values": [{"measurement": "IC50", "result": "< 1000", "unit": "nM"}]}
{"smiles": "CC(C)(C)c1ccc(S(=O)(=O)Nc2ccc(Cl)cc2-c2nncn2[C@H]2CCNC2)cc1", "note": "[Compound 32]", "values": [{"measurement": "IC50", "result": "< 1000", "unit": "nM"}]}
{"smiles": "COCc1nnc(-c2cc(Cl)c(F)cc2NS(=O)(=O)c2ccc(C(C)(C)C)cc2)n1C", "note": "[Compound 107, 4-tert-butyl-N-(4-chloro-5-fluoro-2-(5-(methoxymethyl)-4-methyl-4H-1,2,4-triazol-3-yl)phenyl)benzenesulfonamide]", "values": [{"measurement": "IC50", "result": "< 1000", "unit": "nM"}]}
{"smiles": "CCn1cnnc1-c1cc(Cl)ccc1NS(=O)(=O)c1ccc(C(C)(C)C)cc1", "note": "[Compound 31, 4-tert-butyl-N-(4-chloro-2-(4-ethyl-4H-1,2,4-triazol-3-yl)phenyl)benzenesulfonamide]", "values": [{"measurement": "IC50", "result": "< 1000", "unit": "nM"}]}
{"smiles": "Cc1nnc(-c2cc(Cl)ccc2NS(=O)(=O)c2ccc(C(C)(C)C)cc2)n1C(C)C", "note": "[Compound 3, 4-tert-butyl-N-(4-chloro-2-(4-isopropyl-5-methyl-4H-1,2,4-triazol-3-yl)phenyl)benzenesulfonamide]", "values": [{"measurement": "IC50", "result": "< 1000", "unit": "nM"}]}
{"smiles": "CCn1c(C)nnc1-c1cc(F)c(F)cc1NS(=O)(=O)c1ccc(C(C)(C)C)cc1", "note": "[Compound 71, 4-tert-butyl-N-(2-(4-ethyl-5-methyl-4H-1,2,4-triazol-3-yl)-4,5-difluorophenyl)benzenesulfonamide]", "values": [{"measurement": "IC50", "result": "< 1000", "unit": "nM"}]}
